Data: ChEMBL document CHEMBL5344454 (ACS Med Chem Lett, 2024)

Experiment: Inhibition of Huntingtin polyQ 49 mutant in Huntington's disease patient derived human iPSC cells incubated for 48 hrs by HTRF assay
Format: cell-based

SMILES | IC50
Cc1cn2nc(-c3cc(F)c4nc(N5CCC(N(C)C)CC5)oc4c3)cc(C(F)(F)F)c2n1 | < 100 nM
Cc1cn2nc(-c3cc(F)c4nc(C5CCNCC5)cn4c3)cc(C)c2n1 | < 100 nM
Cc1cn2nc(-c3cc(F)c4nc(C5CCN(C6CC6)CC5)cn4c3)cc(C(F)F)c2n1 | < 100 nM
Cc1cn2nc(-c3cc(F)c4nc(C5CCN(C6COC6)CC5)cn4c3)cc(C)c2n1 | < 100 nM
Cc1cn2nc(-c3cc(F)c4nn(C5CCNCC5)nc4c3)cc(C(F)F)c2n1 | < 100 nM
Cc1cn2nc(-c3cc(F)c4nc(C5CCNC5)cn4c3)cc(C)c2n1 (stereo unspecified) | < 100 nM
